Measurements as given in patent US12498382B2, “Biomarkers for vitiligo” (INCYTE CORPORATION, priority 2019, dated 2025).

Tested on: HaCaT cells
Assay: Concentrations of inflammatory mediators produced by HaCaT cells stimulated with TNFα and IFNγ in presence/absence of JAK inhibitors (ProCarta)
Assay type: cell-based, human
Procedure: After 48 hours, cell culture media was removed from 24 well plates and replaced with 250 uL of media containing serial diluted drug, then incubated for 15 minutes at 37° C./5% CO2. […] The final concentration of Recombinant Human Interferon gamma and Recombinant Human Tumor Necrosis Factor alpha was 25 ng/mL of each cytokine. Cytokine stimulation added to wells containing drug brought the final concentrations for each drug treatment to 25 nM, 50 nM, 100 nM, and 200 nM. Treated plates were mixed by gentle agitation for 30 seconds then incubated for 24 hours at 37° C./5% CO2. At the end of the 24 hour incubation media was immediately removed from each plate.
Media was incubated with antibody conjugated beads designed to bind to the epitopes of specific target proteins and identify the bound protein through the bead's distinctive spectral pattern. Biotinylated detection antibodies, designed to bind to different epitopes of the same target proteins, and Streptavidin-PE are added to assay plates to quantify the amount of the target proteins. Assay plates were read on the Luminex 200 and data were expressed as Net Median Fluorescence Intensity. […] The concentration of each protein was extrapolated from the antigen standard curve and concentrations were expressed as pg/mL (Table 15).

[1] = TNFα 25 ng/mL + IFNγ 25 ng/mL, drug 100 nM
[2] = TNFα 25 ng/mL + IFNγ 25 ng/mL, drug 200 nM

Compound: N#CCC1(n2cc(-c3ncnc4[nH]ccc34)cn2)CN(C2CCN(C(=O)c3ccnc(C(F)(F)F)c3F)CC2)C1 [Cpc B]
- IL15 concentration [1]: 2.58 ± 0.68 pg/mL
- IL17A concentration [1]: 4.84 ± 0.34 pg/mL
- IL18 concentration [1]: 156.06 ± 3.24 pg/mL
- IL21 concentration [1]: 2.36 ± 0.35 pg/mL
- IL22 concentration [1]: 8.03 ± 0.87 pg/mL
- IL23 concentration [1]: 6.44 ± 0.69 pg/mL
- IL27 concentration [1]: 5.36 ± 0.73 pg/mL
- IL31 concentration [1]: 3.35 ± 0.44 pg/mL
- IP-10/CXCL10 concentration [1]: 4050.7 ± 471.31 pg/mL
- LIF concentration [1]: 70.3 ± 3.65 pg/mL
- MCP1 concentration [1]: 15200 ± 0 pg/mL
- MIP1 alpha concentration [1]: 91.52 ± 5.05 pg/mL
- MIP1 beta concentration [1]: 323.13 ± 6.82 pg/mL
- PDGF-BB concentration [1]: 5.4 ± 0.16 pg/mL
- PIGF-1 concentration [1]: 54.67 ± 3.27 pg/mL
- RANTES concentration [1]: 194.21 ± 12.67 pg/mL
- SCF concentration [1]: 4.26 ± 0.17 pg/mL
- SDF-1 alpha concentration [1]: 3471.01 ± 111.77 pg/mL
- TNF alpha concentration [1]: 11722.68 ± 1259.67 pg/mL
- TNF beta concentration [1]: 4 ± 0.51 pg/mL
- VEGF-A concentration [1]: 1262.01 ± 46.28 pg/mL
- VEGF-D concentration [1]: 8.71 ± 0.65 pg/mL
- bNGF concentration [1]: 7.04 ± 0.59 pg/mL
- BDNF concentration [2]: 4.1 ± 0.24 pg/mL
- EGF concentration [2]: 1.52 ± 0.1 pg/mL
- Eotaxin concentration [2]: 10.05 ± 0.19 pg/mL
- FGF-2 concentration [2]: 21.39 ± 1.61 pg/mL
- GM-CSF concentration [2]: 134.13 ± 3.74 pg/mL
- GRO alpha concentration [2]: 563.61 ± 42.17 pg/mL
- HGF concentration [2]: 13.5 ± 0.57 pg/mL
- IFN alpha concentration [2]: 0.26 ± 0 pg/mL
- IFN gamma concentration [2]: 25272.53 ± 3796.83 pg/mL
- IL1RA concentration [2]: 5710.44 ± 269.38 pg/mL
- IL1 alpha concentration [2]: 6.16 ± 0.35 pg/mL
- IL1 beta concentration [2]: 8.43 ± 0.29 pg/mL
- IL2 concentration [2]: 31.86 ± 1.25 pg/mL
- IL4 concentration [2]: 6.42 ± 1.24 pg/mL
- IL5 concentration [2]: 25.88 ± 1.37 pg/mL
- IL6 concentration [2]: 568.73 ± 24.74 pg/mL
- IL7 concentration [2]: 2.09 ± 0.14 pg/mL
- IL8 concentration [2]: 3023.88 ± 193.36 pg/mL
- IL9 concentration [2]: 3.28 ± 0.35 pg/mL
- IL10 concentration [2]: 0.84 ± 0.06 pg/mL
- IL12p70 concentration [2]: 1.87 ± 0.16 pg/mL
- IL13 concentration [2]: 2.52 ± 0.3 pg/mL
- IL15 concentration [2]: 2.57 ± 0.54 pg/mL
- IL17A concentration [2]: 4.43 ± 0.26 pg/mL
- IL18 concentration [2]: 159.36 ± 4.73 pg/mL
- IL21 concentration [2]: 2.47 ± 0.28 pg/mL
- IL22 concentration [2]: 7.74 ± 0.78 pg/mL
- IL23 concentration [2]: 7.41 ± 0.5 pg/mL
- IL27 concentration [2]: 8.04 ± 1.65 pg/mL
- IL31 concentration [2]: 3.93 ± 0.4 pg/mL
- IP-10/CXCL10 concentration [2]: 4071.78 ± 411.22 pg/mL
- LIF concentration [2]: 71.92 ± 2.82 pg/mL
- MCP1 concentration [2]: 17302.89 ± 2102.89 pg/mL
- MIP1 alpha concentration [2]: 83.1 ± 2.77 pg/mL
- MIP1 beta concentration [2]: 318.83 ± 8.71 pg/mL
- PDGF-BB concentration [2]: 5.28 ± 0.15 pg/mL
- PIGF-1 concentration [2]: 54.61 ± 2.69 pg/mL
- RANTES concentration [2]: 183.18 ± 13.92 pg/mL
- SCF concentration [2]: 4.2 ± 0.17 pg/mL
- SDF-1 alpha concentration [2]: 3481.04 ± 134.24 pg/mL
- TNF alpha concentration [2]: 11233.91 ± 945.2 pg/mL
- TNF beta concentration [2]: 4.42 ± 0.45 pg/mL
- VEGF-A concentration [2]: 1232.36 ± 49.33 pg/mL
- VEGF-D concentration [2]: 9.12 ± 0.78 pg/mL
- bNGF concentration [2]: 6.52 ± 0.69 pg/mL
- BDNF concentration (no stimulation, drug 200 nM): 5.35 ± 0.34 pg/mL
- EGF concentration (no stimulation, drug 200 nM): 1.06 ± 0.14 pg/mL
- Eotaxin concentration (no stimulation, drug 200 nM): 2.22 ± 0.09 pg/mL
- FGF-2 concentration (no stimulation, drug 200 nM): 8.5 ± 0.95 pg/mL
- GM-CSF concentration (no stimulation, drug 200 nM): 8.69 ± 1.22 pg/mL
- GRO alpha concentration (no stimulation, drug 200 nM): 228.97 ± 14.45 pg/mL
- HGF concentration (no stimulation, drug 200 nM): 4.44 ± 0.32 pg/mL
- IFN alpha concentration (no stimulation, drug 200 nM): 0.23 ± 0.02 pg/mL
- IFN gamma concentration (no stimulation, drug 200 nM): 3.39 ± 0.69 pg/mL
- IL1RA concentration (no stimulation, drug 200 nM): 502.58 ± 57.22 pg/mL
- IL1 alpha concentration (no stimulation, drug 200 nM): 0.29 ± 0.03 pg/mL
- IL1 beta concentration (no stimulation, drug 200 nM): 0.98 ± 0.14 pg/mL
- IL2 concentration (no stimulation, drug 200 nM): 3.32 ± 0.6 pg/mL
- IL4 concentration (no stimulation, drug 200 nM): 4.61 ± 0.7 pg/mL
- IL5 concentration (no stimulation, drug 200 nM): 2.84 ± 0.38 pg/mL
- IL6 concentration (no stimulation, drug 200 nM): 26.86 ± 2.62 pg/mL
- IL7 concentration (no stimulation, drug 200 nM): 3.03 ± 0.2 pg/mL
- IL8 concentration (no stimulation, drug 200 nM): 261.92 ± 12.12 pg/mL
- IL9 concentration (no stimulation, drug 200 nM): 3.91 ± 0.48 pg/mL
- IL10 concentration (no stimulation, drug 200 nM): 0.32 ± 0.07 pg/mL
- IL12p70 concentration (no stimulation, drug 200 nM): 1.55 ± 0.29 pg/mL
- IL13 concentration (no stimulation, drug 200 nM): 1.14 ± 0.13 pg/mL
- IL15 concentration (no stimulation, drug 200 nM): 2.22 ± 0.42 pg/mL
- IL17A concentration (no stimulation, drug 200 nM): 1.2 ± 0.29 pg/mL
- IL18 concentration (no stimulation, drug 200 nM): 6.04 ± 0.5 pg/mL
- IL21 concentration (no stimulation, drug 200 nM): 2.43 ± 0.31 pg/mL
- IL22 concentration (no stimulation, drug 200 nM): 8.13 ± 0.77 pg/mL
- IL23 concentration (no stimulation, drug 200 nM): 5.8 ± 1.11 pg/mL
- IL27 concentration (no stimulation, drug 200 nM): 7.57 ± 2.22 pg/mL
- IL31 concentration (no stimulation, drug 200 nM): 3.01 ± 0.44 pg/mL
- IP-10/CXCL10 concentration (no stimulation, drug 200 nM): 19.75 ± 0.42 pg/mL
- LIF concentration (no stimulation, drug 200 nM): 23.25 ± 0.99 pg/mL
- MCP1 concentration (no stimulation, drug 200 nM): 1125.31 ± 55.12 pg/mL
- MIP1 alpha concentration (no stimulation, drug 200 nM): 2.63 ± 0.35 pg/mL
- MIP1 beta concentration (no stimulation, drug 200 nM): 113.94 ± 3.76 pg/mL
- PDGF-BB concentration (no stimulation, drug 200 nM): 2.15 ± 0.13 pg/mL
- PIGF-1 concentration (no stimulation, drug 200 nM): 20.17 ± 1.26 pg/mL
- RANTES concentration (no stimulation, drug 200 nM): 8.42 ± 0.51 pg/mL
- SCF concentration (no stimulation, drug 200 nM): 1.93 ± 0.13 pg/mL
- SDF-1 alpha concentration (no stimulation, drug 200 nM): 1003.25 ± 40.97 pg/mL
- TNF alpha concentration (no stimulation, drug 200 nM): 2.4 ± 0.71 pg/mL
- TNF beta concentration (no stimulation, drug 200 nM): 4.7 ± 0.28 pg/mL
- VEGF-A concentration (no stimulation, drug 200 nM): 554.18 ± 29.76 pg/mL
- VEGF-D concentration (no stimulation, drug 200 nM): 3.19 ± 0.57 pg/mL
- bNGF concentration (no stimulation, drug 200 nM): 3.84 ± 0.71 pg/mL
